Measured values from patent US20170290821A1 (priority 2014, published 2017).
Structures can show the parent of a compound that is named as a salt. Where two headings read alike, the source gives them in different places.

Experiments:
[1] = Cytotoxicity test (Cell Counting Kit-8), HEK293; assay type: cell-based, human; details: human, 293 (HEK293) cells, read-out: CC50 (50% cytotoxicity concentration) (converted)
Protocol: (§1) First, as test compound solutions, test compounds were prepared in 1% dimethylsulfoxide-containing MEMs so that a final concentration was 1000, 100, 10, 1, 0.1, 0.01, or 0.001 μM.
(§2) Cell fluids in which MDCK cells, A549 cells, and HEK293 cells were prepared at concentrations of 6.25×10^5 cells/mL, 2.5×10^6 cells/mL, and 1.25×10^5 cells/mL in minimum essential mediums (MEMs) were added to a 96-well plate at 0.1 ml/well and the cells were seeded. The cells in the 96-well plate were cultured in a carbon dioxide incubator at 37° C. and washed with MEM the day after the seeding date. In the washed cells in the 96-well plate, 0.1 mL of each test compound solution was added to three wells for each concentration and the cells in the 96-well plate were then cultured in a carbon dioxide incubator at 37° C. for 48 hours. After the culture, a Cell Counting Kit-8 solution (commercially available from Dojindo Molecular Technologies, Inc.) was added to each well at 10 μL and culture was additionally performed at 37° C. for several hours. After the culture, an absorbance at 450 nm of a solution of each well in the 96-well plate was measured using a microplate reader. An absorbance value when a solvent (1% dimethylsulfoxide-containing MEM) was added in place of the test compound was set to 100% at which the whole cells survived. A final concentration value of the test compound when an absorbance was 50% was calculated as a 50% cytotoxicity concentration (CC50 value).

[2] = tested on: influenza virus; assay type: cell-based
[3] = tested on: A549 cells; test: Cell viability with inhibitors (CellTiter-Glo, Example 2), A549; details: 0.2 μM
Protocol: (§3) In addition, a cell viability (%) was calculated using a CellTiter-Glo assay system (commercially available from Promega Corporation) according to the appended instructions. The number of cells cultured in a medium containing the inhibitors with respect to the number of living cells in cells cultured in a medium containing the control (the DMSO solution) was calculated as the cell viability (%).

[4] = molecular target: T1, adenine nucleotide transporter (ANT) (Homo sapiens, UniProt P05141); details: cited from earlier work
T1 sequence (P05141 1-298): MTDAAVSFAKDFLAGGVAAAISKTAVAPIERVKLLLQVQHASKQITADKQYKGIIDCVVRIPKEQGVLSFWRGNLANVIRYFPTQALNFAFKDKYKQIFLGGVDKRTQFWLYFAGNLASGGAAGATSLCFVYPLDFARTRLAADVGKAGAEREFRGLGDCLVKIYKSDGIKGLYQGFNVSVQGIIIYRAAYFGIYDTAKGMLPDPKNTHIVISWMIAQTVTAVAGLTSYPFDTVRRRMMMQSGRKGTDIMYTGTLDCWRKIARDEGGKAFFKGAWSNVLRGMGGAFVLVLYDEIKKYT

[5] = tested on: A549 cells
Protocol: as §3

[6] = tested on: HEK293 cells or A549 cells; test: Cell viability with inhibitors (CellTiter-Glo, Example 2), cell line not specified; assay type: cell-based, human; details: for cell viability: 48 hours
Protocol: Specifically, HEK293 cells or A549 cells were infected with an influenza virus with an MOI of 0.001. Cells 1 hour after the infection were washed and then cultured in a culture solution containing inhibitors, a DMSO solution (final concentration: 1 volume %) was used as a control instead of the inhibitors. […] In addition, a cell viability (%) was calculated using a CellTiter-Glo assay system (commercially available from Promega Corporation) according to the appended instructions. The number of cells cultured in a medium containing the inhibitors with respect to the number of living cells in cells cultured in a medium containing the control (the DMSO solution) was calculated as the cell viability (%).

[7] = tested on: HEK293 cells; test: Cytotoxicity test (Cell Counting Kit-8), HEK293; assay type: cell-based, human; details: 293 (HEK293) cells, 48 hours
Protocol: as §1, §2

[8] = Cytotoxicity test (Cell Counting Kit-8), A549; assay type: cell-based; details: human, A549 cells, read-out: CC50 (50% cytotoxicity concentration) (converted)
[9] = Cytotoxicity test (Cell Counting Kit-8), MDCK; assay type: cell-based, canine; details: dog, MDCK cells, read-out: CC50 (50% cytotoxicity concentration) (converted)
Protocol: as §1
as §2, with “A final concentration value of the test compound when an absorbance was 50% was calculated as a 50% cytotoxicity concentration (CC50 value).” left out

## CC(C)N(CCC(=O)c1ccc2ccccc2c1)Cc1ccccc1 [Compound J15, 1-propanone, 3-[(1-methylethyl)(phenylmethyl)amino]-1-(2-naphthalenyl)-, hydrochloride (1:1)]
[1]; HEK293 cells
  CC50 at 48 h: 47.9 µM

## CC(C)C[C@H](NC(=O)[C@H](Cc1ccccc1)NC(=O)c1cnccn1)B(O)O [Bortezomib]
[2]; 0.2 μM, A549 cells, MOI 0.001, 48 hours
  virus titer reduced by a common logarithmic value: 4 common logarithmic value
[3]
  cytotoxicity: without showing severe cytotoxicity

## C=C1[C@@H]2CC[C@H]3[C@]4(C)C[C@H](O[C@@H]5O[C@H](CO)[C@@H](OS(=O)(=O)O)[C@H](OS(=O)(=O)O)[C@H]5OC(=O)CC(C)C)CC(C(=O)O)(C(=O)O)[C@H]4CC[C@]3(C2)[C@H]1O [Carboxyatractyloside]
[4]
  Ki: < 0.01 µM

## COc1cc2c(c(OC)c1OC)-c1ccc(OC)c(=O)cc1[C@@H](NC(C)=O)CC2 [Colchicine]
[5]
  cytotoxicity: without showing severe cytotoxicity
[2]
  virus titer reduced by a common logarithmic value: 2 common logarithmic value

## Fc1cc(F)c2c(c1)C1C=CCC1C(c1cccnc1)N2 (centres unmarked) [Golgicide A]
[6]; summary of Example 2
  toxicity to host cells: relatively low toxicity to host cells
[2]
  anti-influenza virus effect: had an anti-influenza virus effect
  effect on virus titer: significantly reduced a virus titer

## COc1cc2ncnc(Nc3ccc(O)cc3)c2cc1OC [Compound J20, 4-[(6,7-dimethoxy-4-quinazolinyl)amino]-phenol]
[1]; HEK293 cells
  CC50 at 48 h: > 316 µM

## CN1CCN(c2cccc(Nc3nc4c(-c5ccc(S(C)(=O)=O)cc5)cccn4n3)c2)CC1 [Compound J11]
[7]
  CC50 (50% cytotoxicity concentration): >5.5 log10, nM

## O=c1c(-c2ccc(O)cc2)coc2cc(O)cc(O)c12 [Genistein]
[2]
  anti-influenza virus effect: had an anti-influenza virus effect

## N#CCNC(=O)c1ccc(-c2ccnc(Nc3ccc(N4CCOCC4)cc3)n2)cc1 [Compound J8, N-(cyanomethyl)-4-(2-(4-morpholinophenylamino)pyrimidin-4-yl)benzamide]
[1]; HEK293 cells
  CC50 at 48 h: > 316 µM

## N#C/C(=C\c1ccc(O)c(O)c1)C(=O)NCc1ccccc1 [Compound J4, (E)-N-benzyl-2-cyano-3-(3,4-dihydroxyphenyl)acrylamide]
[8]
  CC50 at 48 h: 2690 µM

## Cl.Cl.Fc1cc(-c2cccc3ncc(-c4cnn(C5CCNCC5)c4)nc23)cc(F)c1CN1CCOCC1 [Compound J21, 4-[[2,6-difluoro-4-[3-(1-piperidin-4-ylpyrazol-4-yl)quinoxalin-5-yl]phenyl]methyl]morpholine; dihydrochloride]
[1]
  CC50 at 48 h: 38.9 µM

## CC(=O)C(C)=NO [2,3-Butanedione 2-Monoxime]
[6]; 30 mM
  cell viability: significantly reduced
[2]
  anti-influenza virus effect: had an anti-influenza virus effect

## CN1C/C=C/CCOc2cccc(c2)-c2ccnc(n2)Nc2cccc(c2)C1 [Compound J23, 20-oxa-5,7,14,27-tetraazatetracyclo[19.3.1.12,6.18, 12]heptacosa-1(25),2,4,6(27),8,10,12(26),16,21,23-decane,14-methyl-]
[9]
  CC50 at 48 h: 7.94 µM
[1]; HEK293 cells
  CC50 at 48 h: 52.5 µM
[8]
  CC50 at 48 h: 35.5 µM

## CCC[C@H](NC(=O)/C(C#N)=C/c1cccc(Br)n1)c1ccccc1 [Compound J25, (2E)-3-(6-bromo-2-pyridinyl)-2-cyano-N-[1S-phenylbutyl]-2-propenamide]
[7]
  CC50 (50% cytotoxicity concentration): 3.69 log10, nM
[6]; 50 μM
  cell viability: significantly reduced
[2]
  anti-influenza virus effect: had an anti-influenza virus effect

## Fc1cc(-c2cccc3ncc(-c4cnn(C5CCNCC5)c4)nc23)cc(F)c1CN1CCOCC1 [Compound J13, 8-(3,5-difluoro-4-(morpholinomethyl)phenyl)-2-(1-(piperidin-4-yl)-1H-pyrazol-4-yl)qui noxaline]
[1]; HEK293 cells
  CC50 at 48 h: 20.9 µM

## O=C(Nc1c[nH]nc1-c1nc2cc(CN3CCOCC3)ccc2[nH]1)NC1CC1 [Compound J7, 1-cyclopropyl-3-(3-(5-(morpholinomethyl)-1H-benzo[d]imidazol-2-yl)-1H-pyrazol-4-yl) urea]
[8]
  CC50 at 48 h: > 316 µM

## O=C1/C(=C/c2ccc(O)c(Br)c2)CCC/C1=C\c1ccc(O)c(Br)c1 [Histone acetyltransferase inhibitor II]
[2]
  anti-influenza virus effect: had an anti-influenza virus effect

## O=C(Nc1nc2cccc(-c3ccc(CN4CCS(=O)(=O)CC4)cc3)n2n1)C1CC1 [Compound J19, N-[5-[4-[(1,1-dioxido-4-thiomorpholinyl)methyl]phenyl][1,2,4]triazolo[1,5-a]pyridin-2-yl]cyclopropanccarboxamidc]
[9]
  CC50 at 48 h: > 316 µM
[1]; HEK293 cells
  CC50 at 48 h: > 316 µM
[8]
  CC50 at 48 h: > 316 µM
